From patent US9642819B2, “Low dosage serotonin 5-HT2A receptor agonist to suppress inflammation” (BOARD OF SUPERVISORS OF LOUISIANA STATE UNIVERSITY AND …, priority 2008, dated 2017)
“Also recorded” adds a separate entry of the source.

Columns and labels:
ICAM-1 gene expression [1] = experiment: TNF-α induced ICAM-1 gene expression in rat C6 glioma cells; format: cell-based; conditions: 1 nM and 50 nM prior to TNF-α
Method: Experiments were conducted to analyze for the effect of 5-HT2A receptor activation on proinflammatory marker expression in other cell types. Human neuroblastoma cells (SHSY5Y) and rat glioma cells (C6) can be obtained from the American Type Culture Collection (Manassas, Va.), but were provided Purdue University. The cells were grown in DMEM+10% FBS. DMEM was made and provided by the Cell and Molecular Core of the Mentoring in Cardiovascular Biology COBRE center at LSUHSC-NO. FBS was purchased from Invitrogen (Carlsbad, Calif.). Primary rat aortic endothelial cells were prepared fresh and provided by the Cell and Molecular Core of the Mentoring in Cardiovascular Biology COBRE center at LSUHSC-NO. Cells were tested at passages 3-4. Cells were grown in endothelial cell growth medium (Cell Applications, Inc.). Primary rat bronchoaveolar macrophage cells were obtained by lung lavage from rats and used at day 3 or 4 post plating in DMEM+10% FBS.
All treatments with 5-HT2A receptor agonists occurred 1 hour prior to the addition of TNF-alpha (10 ng/ml) or LPS (100 ng or 1 mg) depending on the experiment. All RNA isolations, cDNA synthesis, QPCR gene expression assays examining ICAM1, VCAM1, and IL6, and data analysis were performed as described above in Example 1, except the primers were different for the human cell experiment. […]

ICAM-1 gene expression [2] = experiment: TNF-α induced ICAM-1 gene expression in primary rat aortic smooth muscle cells; format: cell-based; conditions: for block of TNF-α induced ICAM1 gene expression at 1 nM: VCAM1 and IL6 identical
Method: (§1) RASM cells and treatment. Rat aortic smooth muscle (RASM) cells were isolated from adult 180 g male Sprague-Dawley rats and provided by the Cell and Molecular Core Facility in the Department of Pharmacology at LSUHSC-NO. Isolated RASM cells were grown in M-199 media containing 10% fetal bovine serum (Gibco), 100 units/mL penicillin, and 100 µg/mL streptomycin, and incubated at 37° C. in 5% CO2. Cells for all assays were used between passages 3 and 5. Prior to treatments, cells were grown in M-199 media with 10% fetal bovine serum (FBS) until 30-50% confluent. For most assays, cells were treated with (R)-DOI, or other drugs as indicated, at specific concentrations for 24 hours, followed by TNF-α (10 ng/ml) and (R)-DOI at the same pretreatment concentrations in fresh M-199 media. After another 24 hours, the cells were scraped, pelleted, and processed for RNA.
(§2) RNA isolation and Quantitative Realtime-PCR. RNA was extracted from cells using Illustra RNAspin Mini kits from GE Healthcare Life Sciences (Piscataway, N.J.) following protocols supplied by the manufacturer. First strand cDNA was generated using the ImProm-II cDNA synthesis kit (Promega) following the manufacturers protocols. Q-RT-PCR was performed using the ProbeLibrary system from Roche (Indianapolis, Ind.) in combination with the HotStart-IT probe qpcr master mix from USB Biological (Cleveland, Ohio) following manufactures protocols.
(§3) Primers were synthesized by IDT (Coralville, Iowa). ProbeLibrary probes from Roche were: U3, U74, U13, U106, U79 for 5-HT2AR, ICAM-1, VCAM-1, IL-6, and cyclophillin B, respectively. Quantitative determination of gene expression levels using a 2-step cycling protocol was performed on a MyIQ-5 Cycler (Bio-Rad, Hercules Calif.). Relative gene expression levels were calculated using the 2^[−ΔΔC(T)] method. Levels of all targets from the test samples were normalized to rat cyclophillin B expression.
(§4) To examine the effects of 5-HT2A receptor activation on TNF-α mediated proinflammatory gene expression, RASM cells were pretreated with (R)-DOI, a selective 5-HT2 receptor agonist, as described above. Dose-response curves were determined for the effects on ICAM-1, VCAM-1, and IL-6 gene expression for twelve different concentrations of (R)-DOI ranging from 0.1 pM to 100 nM, with each experiment repeated in triplicate. In FIGS. 1A-1C, the Y-axis represents a percent of TNF-α for the dose of (R)-DOI indicated on the X-axis.

[3] = system: ICAM-1, VCAM-1, and IL-6 gene expression; experiment: TNF-α induced proinflammatory gene expression (ICAM-1, VCAM-1, IL-6) by Q-RT-PCR in RASM cells; format: cell-based, rat; conditions: for effect of receptor antagonist on the inhibitory effects of (R)-DOI: antagonist 100 nM 30 minutes prior to 1 nM (R)-DOI, then TNF-α
Method: as §1, §2, §3, §4

histamine H1 receptors = histamine H1 receptors (Homo sapiens, UniProt P35367); conditions: cited from earlier work
Chain of histamine H1 receptors (P35367 whole entry): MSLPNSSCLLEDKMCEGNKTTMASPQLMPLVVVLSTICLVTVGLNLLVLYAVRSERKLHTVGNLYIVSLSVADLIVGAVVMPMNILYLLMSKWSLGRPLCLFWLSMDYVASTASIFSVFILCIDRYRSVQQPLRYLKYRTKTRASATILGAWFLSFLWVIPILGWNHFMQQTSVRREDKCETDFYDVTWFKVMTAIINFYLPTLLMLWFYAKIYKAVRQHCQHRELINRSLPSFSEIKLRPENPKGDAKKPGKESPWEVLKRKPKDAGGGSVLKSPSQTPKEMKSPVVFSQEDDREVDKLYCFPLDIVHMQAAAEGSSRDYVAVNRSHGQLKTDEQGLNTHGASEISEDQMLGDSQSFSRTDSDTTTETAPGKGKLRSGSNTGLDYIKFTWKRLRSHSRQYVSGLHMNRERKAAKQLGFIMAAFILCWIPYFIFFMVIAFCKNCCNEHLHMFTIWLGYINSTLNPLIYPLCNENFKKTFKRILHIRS

5-HT2A receptors = 5-HT2A receptors (Homo sapiens, UniProt P28223); conditions: cited from earlier work
Chain of 5-HT2A receptors (P28223 whole entry): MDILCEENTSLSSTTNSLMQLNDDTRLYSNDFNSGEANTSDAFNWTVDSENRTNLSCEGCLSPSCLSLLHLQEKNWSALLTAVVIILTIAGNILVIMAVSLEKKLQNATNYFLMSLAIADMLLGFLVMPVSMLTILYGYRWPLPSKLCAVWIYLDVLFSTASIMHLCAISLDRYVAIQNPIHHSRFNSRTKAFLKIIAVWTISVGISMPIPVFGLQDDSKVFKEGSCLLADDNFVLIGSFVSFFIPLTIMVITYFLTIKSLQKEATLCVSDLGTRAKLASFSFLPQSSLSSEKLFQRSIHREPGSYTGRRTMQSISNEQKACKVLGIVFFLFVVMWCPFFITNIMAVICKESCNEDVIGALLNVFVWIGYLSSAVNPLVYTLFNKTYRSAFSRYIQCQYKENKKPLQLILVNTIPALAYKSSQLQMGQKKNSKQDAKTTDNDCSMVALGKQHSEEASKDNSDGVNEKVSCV

α1-adrenergic receptors = conditions: cited from earlier work
[4] = system: Nitric Oxide Synthetase (NOS) activity; experiment: NOS activity: nitrite levels in culture medium of RASM cells after TNF-α; format: cell-based, rat; conditions: 100 nM prior to 1 nM (R)-DOI
Method: Nitric Oxide Synthetase (NOS) Activity. NOS activity was determined by detection of nitrite levels in the cell culture medium following (R)-DOI/TNF-α treatments utilizing the Nitrate Detection kit from Assay Designs (Ann Arbor, Mich.) following the manufacturers protocols. Absorbances were detected at 539 nm on a […] SpectraMax M2 plate reader.
A key participant in inflammatory processes is NOS activity (Guzik et al., 2003). NOS activity can regulate NF-kB activation (Ckless et al., 2007), and cytokine pathway-activated NF-kB can transcriptionally regulate iNOS gene expression (Guo et al., 2007). To examine the effects of 5-HT2A receptor activation on this component of inflammatory mechanisms, primary RASM cells were used to examine the ability of 1 nM (R)-DOI to block TNF-α mediated increases in nitrite levels.
As an indicator of NOS activity, nitrite levels were measured in the cell culture media after treatments and are shown in FIG. 6 as % control. […] Pretreatment with 1 nM (R)-DOI for 24 hours blocked TNF-α mediated increases in nitrite accumulation (DOI+T).

[5] = system: nuclear translocation of p65; experiment: Nuclear translocation of NF-κB subunit p65 in RASM cells; format: cell-based, rat; conditions: pretreatment of the 1 hour time point
Method: Nuclear Translocation of p65. RASM cells were grown in M-199 medium+10% FBS until 50% confluent in 8 well chamber slides. Cells were treated with 1 nM (R)-DOI for various times as indicated, and TNF-α (10 ng/ml; tumor necrosis factor alpha) added. Thirty minutes after TNF-α treatment, cells were fixed and processed with rabbit anti p65 primary and Alexafluor 488-conjugated goat secondary antibodies as described in Zerfaoui et al. (2008) (Zerfaoui et al., 2008). Fluorescent signal was visualized on a Leica DMRA2 fluorescent microscope.
Both ICAM-1 and VCAM-1 gene transcription during inflammatory processes is regulated by the transcription factor NF-κB (Collins et al., 1995). During this process, NF-κB must be activated, and then translocated from the cytoplasm to the nucleus, where it promotes gene transcription. To investigate whether 5-HT2A receptor stimulated inhibition of NF-κB activation and translocation might be a possible mechanism for blockade of proinflammatory gene expression changes, a series of immunohistochemical experiments were conducted examining p65 translocation in RASM cells. TNF-α treatment for 30 minutes caused the expected dramatic shift in localization of the p65 subunit of NF-κB from the cytoplasm to the nucleus (FIG. 7A). […]

[6] = system: nitrite accumulation in C6 glioma cells; conditions: cocktail of TNF-α, read-out: IC50 for partial block of LPS and cytokine stimulated nitrite accumulation; cited from earlier work

CC1CC(C)N1C(=O)C1C=C2c3cccc4[nH]cc(c34)CC2N(C)C1 (stereo not drawn) [LA-SS-Az, (2′S,4′S)-(+)-9,10-Didehydro-6-methylergoline-8β-(trans-2,4-dimethylazetidide)]
effect on ICAM-1 gene expression in rat glioma cells (ICAM-1 gene expression [1]): blocked
induced gene expression blocked at 1 nM (ICAM-1 gene expression [2]; 1 nM pretreatment): about 50%
block of TNF-α induced ICAM1 gene expression at 1 nM (ICAM-1 gene expression [2]; 1 nM pretreatment): moderately effective
block of TNF-α induced ICAM1 gene expression at 50 nM (ICAM-1 gene expression [2]; 50 nM pretreatment): effectively blocked

COc1cccc([C@H](O)C2CCN(CCc3ccc(F)cc3)CC2)c1OC [M100907, R(+)-a-(2,3-dimeth-oxyphenyl)-1-[2-(4-fluorophenylethyl)]-4-pipeddine-methanol, reference compound]
effect of receptor antagonist on the inhibitory effects of (R)-DOI [3]: blocked the effects of (R)-DOI
effect of receptor antagonist on the inhibitory effects of (R)-DOI ([3]; listed as MDL100907): completely blocked

CCN(CC)C(=O)[C@@H]1C=C2c3cccc4[nH]cc(c34)C[C@H]2N(C)C1 [LSD, Lysergic acid diethylamide, reference compound]
block of TNF-α induced ICAM1 gene expression at 1 nM (ICAM-1 gene expression [2]; 1 nM pretreatment): weak to moderate effects
TNF-α effect blocked at 50 nM (ICAM-1 gene expression [2]; 50 nM pretreatment): about 85%

O=C(c1ccc(F)cc1)C1CCN(CCn2c(=O)[nH]c3ccccc3c2=O)CC1 [ketanserin]
potency at blocking histamine H1 receptors (histamine H1 receptors): equipotent
selectivity for 5-HT2A receptors over 5-HT2C receptors (5-HT2A receptors): ~20 fold
affinity for α1-adrenergic receptors (α1-adrenergic receptors): high affinity

Cc1cc(NC(=O)Nc2ccc3c(ccn3C)c2)sn1 [SB204741, N-(1-Methyl-1H-indolyl-5-yl)-N″-(3-methyl-5-isothiazolyl)urea, reference compound]
effect of receptor antagonist on the inhibitory effects of (R)-DOI [3]: did not block; also recorded: had no effect

CCCCCCCCCCCCCC(=O)O[C@@H]1[C@@H](C)[C@@]2(O)[C@@H](C=C(CO)C[C@]3(O)C(=O)C(C)=C[C@@H]23)[C@@H]2C(C)(C)[C@]12OC(C)=O [PMA, Phorbol 12-myristate 13-acetate, reference compound]
effect on TNF-α mediated expression in the absence of (R)-DOI ([3]; 100 nM prior to TNF-α, ICAM1, VCAM1, IL6): blocks the effects of TNF-α; also recorded: completely block

COc1cc(OC)c(C(=O)CCCCN2CCC3(CC2)NC(=O)NC3=O)cc1NS(=O)(=O)c1ccc(C(F)(F)F)cc1.Cl [RS102221, reference compound]
effect of receptor antagonist on the inhibitory effects of (R)-DOI ([3]; hydrochloride): did not block; also recorded: had no effect

COc1ccc2c(c[n+](C)c3c4cc5c(cc4ccc23)OCO5)c1OC.[Cl-] [chelerythrine, 1,2-Dimethoxy-12-methyl[1,3]benzodioxolo[5,6-c]phenanth ridinium chloride, reference compound]
effect of PKC inhibitor on (R)-DOI block of nitrite accumulation [4]: completely inhibited
effect of kinase inhibitor on (R)-DOI inhibition of TNF-α induced ICAM-1 expression (ICAM-1 gene expression [2]; inhibitor 100 nM 30 minutes prior to 1 nM (R)-DOI, then TNF-α): blocked the effects of TNF-α-induced gene expression; also recorded: completely inhibited
effect of PKC inhibitor on (R)-DOI induced inhibition of p65 translocation [5]: blocked

COc1cc(CC(C)N)c(OC)cc1I (racemic) [DOI, 1-(2,5-dimethoxy-4-iodophenyl)-2-aminopropane]
IC50 [6]: 8 ± 3 nM
